According to paper PMC7411887, “New Paracyclophanylthiazoles with Anti-Leukemia Activity: Design, Synthesis, Molecular Docking, and Mechanistic Studies” (Molecules, 2020):

Legend:
NCI-H522 = experiment: NCI single-dose screen (SRB); assay type: cell-based; details: Homo sapiens; Non-Small-Cell Lung Cancer NCI-H522; 10^−5 M; read-out: Growth inhibition percentage
Procedure: (§1) The methodology of the NCI anticancer screening was described in detail elsewhere (http://www.dtp.nci.nih.gov). […] Tested compounds were added to the culture at a single concentration (10^−5 M) and the cultures were incubated for 48 h. End-point determinations were made with a protein binding dye, SRB. Results for each tested compound were reported as the percentage growth of the treated cells when compared to the untreated control cells. The percentage growth was evaluated spectrophotometrically versus controls not treated with test agents. All experiments were repeated three times (Table 1).
(§2) Briefly, the protocol was performed on 60 human tumor cell lines derived from different nine neoplastic diseases. […] If the results obtained met selection criteria, then the compound was tested again on all 60 cell lines in 5× 10-fold dilutions with the top dose being 10^−4 M or 150 μg/mL. Detailed methods are described in the Supplementary Materials related to this article.
(§3) on their site (http://www.dtp.nci.nih.gov). But briefly, the protocol performed at sixty human
(§4) National Cancer Institute, Bethesda, USA. If the results obtained meet selection criteria, then the
(§5) 10-4 molar or 150 μg/mL. […]

SF-539 = experiment: NCI single-dose screen (SRB); assay type: cell-based; details: Homo sapiens; CNS Cancer SF-539; 10^−5 M; read-out: Growth inhibition percentage
Procedure: as §1, §2, §3, §4, §5

SK-MEL-28 = experiment: NCI single-dose screen (SRB); assay type: cell-based; details: Homo sapiens; Melanoma SK-MEL-28; 10^−5 M; read-out: Growth inhibition percentage
Procedure: as §1, §2, §3, §4, §5

A549/ATCC = experiment: NCI single-dose screen (SRB); assay type: cell-based; details: Homo sapiens; Non-Small-Cell Lung Cancer A549/ATCC; 10^−5 M; read-out: Growth inhibition percentage
Procedure: as §1, §2, §3, §4, §5

UO-31 = experiment: NCI single-dose screen (SRB); assay type: cell-based; details: Homo sapiens; Renal Cancer UO-31; 10^−5 M; read-out: Growth inhibition percentage
Procedure: as §1, §2, §3, §4, §5

UACC-62 = experiment: NCI single-dose screen (SRB); assay type: cell-based; details: Homo sapiens; Melanoma UACC-62; 10^−5 M; read-out: Growth inhibition percentage
Procedure: as §1, §2, §3, §4, §5

SK-MEL-2 = experiment: NCI single-dose screen (SRB); assay type: cell-based; details: Homo sapiens; Melanoma SK-MEL-2; 10^−5 M; read-out: Growth inhibition percentage
Procedure: as §1, §2, §3, §4, §5

HOP-62 = experiment: NCI single-dose screen (SRB); assay type: cell-based; details: Homo sapiens; Non-Small-Cell Lung Cancer HOP-62; 10^−5 M; read-out: Growth inhibition percentage
Procedure: as §1, §2, §3, §4, §5

MDA-MB-468 = experiment: NCI single-dose screen (SRB); assay type: cell-based; details: Homo sapiens; Breast Cancer MDA-MB-468; 10^−5 M; read-out: Growth inhibition percentage
Procedure: as §1, §2, §3, §4, §5

T-47D = experiment: NCI single-dose screen (SRB); assay type: cell-based; details: Homo sapiens, T47D; Breast Cancer T-47D; 10^−5 M; read-out: Growth inhibition percentage
Procedure: as §1, §2, §3, §4, §5

NCI-H226 = experiment: NCI single-dose screen (SRB); assay type: cell-based; details: Homo sapiens; Non-Small-Cell Lung Cancer NCI-H226; 10^−5 M; read-out: Growth inhibition percentage
Procedure: as §1, §2, §3, §4, §5

SNB-19 = experiment: NCI single-dose screen (SRB); assay type: cell-based; details: Homo sapiens; CNS Cancer SNB-19; 10^−5 M; read-out: Growth inhibition percentage
Procedure: as §1, §2, §3, §4, §5

HCT-15 = experiment: NCI single-dose screen (SRB); assay type: cell-based; details: Homo sapiens; Colon Cancer HCT-15; 10^−5 M; read-out: Growth inhibition percentage
Procedure: as §1, §2, §3, §4, §5

HS 578T = experiment: NCI single-dose screen (SRB); assay type: cell-based; details: Homo sapiens; Breast Cancer HS 578T; 10^−5 M; read-out: Growth inhibition percentage
Procedure: as §1, §2, §3, §4, §5

BT-549 = experiment: NCI single-dose screen (SRB); assay type: cell-based; details: Homo sapiens; Breast Cancer BT-549; 10^−5 M; read-out: Growth inhibition percentage
Procedure: as §1, §2, §3, §4, §5

DU-145 = experiment: NCI single-dose screen (SRB); assay type: cell-based; details: Homo sapiens; Prostate Cancer DU-145; 10^−5 M; read-out: Growth inhibition percentage
Procedure: as §1, §2, §3, §4, §5

MDA-MB-435 = experiment: NCI single-dose screen (SRB); assay type: cell-based; details: Homo sapiens; Melanoma MDA-MB-435; 10^−5 M; read-out: Growth inhibition percentage
Procedure: as §1, §2, §3, §4, §5

SK-MEL-5 = experiment: NCI single-dose screen (SRB); assay type: cell-based; details: Homo sapiens; Melanoma SK-MEL-5; 10^−5 M; read-out: Growth inhibition percentage
Procedure: as §1, §2, §3, §4, §5

NCI-H460 = experiment: NCI single-dose screen (SRB); assay type: cell-based; details: Homo sapiens; Non-Small-Cell Lung Cancer NCI-H460; 10^−5 M; read-out: Growth inhibition percentage
Procedure: as §1, §2, §3, §4, §5

COLO 205 = experiment: NCI single-dose screen (SRB); assay type: cell-based; details: Homo sapiens; Colon Cancer COLO 205; 10^−5 M; read-out: Growth inhibition percentage
Procedure: as §1, §2, §3, §4, §5

SF-295 = experiment: NCI single-dose screen (SRB); assay type: cell-based; details: Homo sapiens; CNS Cancer SF-295; 10^−5 M; read-out: Growth inhibition percentage
Procedure: as §1, §2, §3, §4, §5

NCI-H322M = experiment: NCI single-dose screen (SRB); assay type: cell-based; details: Homo sapiens; Non-Small-Cell Lung Cancer NCI-H322M; 10^−5 M; read-out: Growth inhibition percentage
Procedure: as §1, §2, §3, §4, §5

SNB-75 = experiment: NCI single-dose screen (SRB); assay type: cell-based; details: Homo sapiens; CNS Cancer SNB-75; 10^−5 M; read-out: Growth inhibition percentage
Procedure: as §1, §2, §3, §4, §5

786-0 = experiment: NCI single-dose screen (SRB); assay type: cell-based; details: Homo sapiens; Renal Cancer 786-0; 10^−5 M; read-out: Growth inhibition percentage
Procedure: as §1, §2, §3, §4, §5

SF-268 = experiment: NCI single-dose screen (SRB); assay type: cell-based; details: Homo sapiens; CNS Cancer SF-268; 10^−5 M; read-out: Growth inhibition percentage
Procedure: as §1, §2, §3, §4, §5

EKVX = experiment: NCI single-dose screen (SRB); assay type: cell-based; details: Homo sapiens; Non-Small-Cell Lung Cancer EKVX; 10^−5 M; read-out: Growth inhibition percentage
Procedure: as §1, §2, §3, §4, §5

OVCAR-3 = experiment: NCI single-dose screen (SRB); assay type: cell-based; details: Homo sapiens; Ovarian Cancer OVCAR-3; 10^−5 M; read-out: Growth inhibition percentage
Procedure: as §1, §2, §3, §4, §5

RPMI-8226 = experiment: NCI single-dose screen (SRB); assay type: cell-based; details: Homo sapiens; Leukemia RPMI-8226; 10^−5 M; read-out: Growth inhibition percentage
Procedure: as §1, §2, §3, §4, §5

UACC-257 = experiment: NCI single-dose screen (SRB); assay type: cell-based; details: Homo sapiens; Melanoma UACC-257; 10^−5 M; read-out: Growth inhibition percentage
Procedure: as §1, §2, §3, §4, §5

leukemia SR = experiment: MTT antiproliferative assay; details: Homo sapiens, read-out: Cytotoxicity IC50 L.SR

SMILES | inhibition at 10 µM (NCI-H522) | inhibition at 10 µM (SF-539) | inhibition at 10 µM (SK-MEL-28) | inhibition at 10 µM (A549/ATCC) | inhibition at 10 µM (UO-31) | inhibition at 10 µM (UACC-62) | inhibition at 10 µM (SK-MEL-2) | inhibition at 10 µM (HOP-62) | inhibition at 10 µM (MDA-MB-468) | inhibition at 10 µM (T-47D) | inhibition at 10 µM (NCI-H226) | inhibition at 10 µM (SNB-19) | inhibition at 10 µM (HCT-15) | inhibition at 10 µM (HS 578T) | inhibition at 10 µM (BT-549) | inhibition at 10 µM (DU-145) | inhibition at 10 µM (MDA-MB-435) | inhibition at 10 µM (SK-MEL-5) | inhibition at 10 µM (NCI-H460) | inhibition at 10 µM (COLO 205) | also measured
C=CCN1C(=O)C(=CC(=O)OC)SC1=NNC(=O)c1cc2ccc1CCc1ccc(cc1)CC2 [Compound 3d] | 39.2% | 0.33% | 0% | 5.2% | 24.6% | 22.8% | 2.7% | 0% | 23.7% | 25% | 12.4% | 15.3% | 33.1% | 6.41% | 38.3% | 0% | 0% | 7.53% | 0% | 0% | inhibition at 10 µM (SF-295): 6.42%; inhibition at 10 µM (NCI-H322M): 2.94%; inhibition at 10 µM (SNB-75): 21.9%; inhibition at 10 µM (786-0): 8.77%; inhibition at 10 µM (SF-268): 0%; inhibition at 10 µM (EKVX): 9.16%; inhibition at 10 µM (OVCAR-3): 13.6%; inhibition at 10 µM (RPMI-8226): 109%; inhibition at 10 µM (UACC-257): 8.89%; IC50 (leukemia SR): 22.06 ± 0.0679 µM
COC(=O)C=C1SC(=NNC(=O)c2cc3ccc2CCc2ccc(cc2)CC3)N(Cc2ccccc2)C1=O [Compound 3b] | 84.1% | 56.7% | 0% | 22.9% | 55% | 48.1% | 14.4% | 22.8% | 78.9% | 106% | 35.2% | 43.1% | 72.2% | 12.6% | 89.7% | 16.8% | 8.44% | 17.7% | 6.29% | 27.3% | inhibition at 10 µM (SF-295): 10.6%; inhibition at 10 µM (NCI-H322M): 6.7%; inhibition at 10 µM (SNB-75): 48.8%; inhibition at 10 µM (786-0): 50.5%; inhibition at 10 µM (SF-268): 14.9%; inhibition at 10 µM (EKVX): 22.3%; inhibition at 10 µM (OVCAR-3): 79.7%; inhibition at 10 µM (RPMI-8226): 147%; inhibition at 10 µM (UACC-257): 19%; IC50 (leukemia SR): 2.02 ± 0.0688 µM
CCN1C(=O)C(=CC(=O)OC)SC1=NNC(=O)c1cc2ccc1CCc1ccc(cc1)CC2 [Compound 3e] | 40.3% | 9.82% | 0% | 3% | 21% | 21.4% | 5.78% | 0% | 12.7% | 5.77% | 7.31% | 14.4% | 31.6% | 1.03% | 7.73% | 0% | 0.72% | 7.5% | 0% | 0% | inhibition at 10 µM (SF-295): 3.13%; inhibition at 10 µM (NCI-H322M): 7.75%; inhibition at 10 µM (SNB-75): 21.2%; inhibition at 10 µM (786-0): 9.45%; inhibition at 10 µM (SF-268): 2.18%; inhibition at 10 µM (EKVX): 6.44%; inhibition at 10 µM (OVCAR-3): 7.09%; inhibition at 10 µM (RPMI-8226): 114%; inhibition at 10 µM (UACC-257): 7.26%; IC50 (leukemia SR): 5.04 ± 0.0791 µM
COc1cc2c(c(OC)c1OC)-c1ccc(OC)c(=O)cc1[C@@H](NC(C)=O)CC2 [Colchicine, colchicine, reference compound] | – | – | – | – | – | – | – | – | – | – | – | – | – | – | – | – | – | – | – | – | IC50 (leukemia SR): 1.81 ± 0.0701 µM
COC(=O)C=C1SC(=Nc2cccnc2)N(NC(=O)c2cc3ccc2CCc2ccc(cc2)CC3)C1=O [Compound 3c, Methyl (E)-2-((E)-3-[2.2]paracyclophanyl)amido-4-oxo-2-(pyridin-3-ylimino)-thiazolidin-5-ylidene)acetate] | 17.7% | 11.6% | 0.86% | 2.04% | 21.9% | 10.7% | 0% | 4% | 18% | 31.1% | 7.48% | 16.6% | 11.8% | 0% | 18.4% | 0% | 0% | 3.64% | 0.75% | 0% | inhibition at 10 µM (SF-295): 5.63%; inhibition at 10 µM (NCI-H322M): 1.72%; inhibition at 10 µM (SNB-75): 0.25%; inhibition at 10 µM (786-0): 8.52%; inhibition at 10 µM (SF-268): 3.08%; inhibition at 10 µM (EKVX): 2.61%; inhibition at 10 µM (OVCAR-3): 4.51%; inhibition at 10 µM (RPMI-8226): 83%; inhibition at 10 µM (UACC-257): 0.83%; IC50 (leukemia SR): 4.84 ± 0.0843 µM
COC(=O)/C=C1/S/C(=N/NC(=O)c2cc3ccc2CCc2ccc(cc2)CC3)N(C2CC2)C1=O [Compound 3f] | 30% | 0% | 10.3% | 11.4% | 21.7% | 18% | 13.5% | 0% | 29.7% | 23% | 9.41% | 11.3% | 29.4% | 5.01% | 26.8% | 6.2% | 8.06% | 14.5% | 1.98% | 4.48% | inhibition at 10 µM (SF-295): 8.8%; inhibition at 10 µM (NCI-H322M): 4.43%; inhibition at 10 µM (SNB-75): 24.7%; inhibition at 10 µM (786-0): 14.6%; inhibition at 10 µM (SF-268): 2.56%; inhibition at 10 µM (EKVX): 12.2%; inhibition at 10 µM (OVCAR-3): 15.9%; inhibition at 10 µM (RPMI-8226): 49.8%; inhibition at 10 µM (UACC-257): 16.3%
